Assay results reported in patent US20110144014A1, “CYTOKINE RECEPTOR MODULATORS AND USES THEREOF” (CENTRE HOSPITALIER UNIVERSITAIRE SAINTE-JUSTINE, priority 2005, published 2011).
Where a SMILES comes first, the peptide text is derived from it. [ ]: non-standard residue; d: D form.

Target: T1, IL-1R (Rattus norvegicus, UniProt Q02955)
T1 construct: Thymocytes freshly isolated from rat thymus; endogenous in cells; host or cells: freshly isolated rat thymocytes
T1 sequence (Q02955 20-576): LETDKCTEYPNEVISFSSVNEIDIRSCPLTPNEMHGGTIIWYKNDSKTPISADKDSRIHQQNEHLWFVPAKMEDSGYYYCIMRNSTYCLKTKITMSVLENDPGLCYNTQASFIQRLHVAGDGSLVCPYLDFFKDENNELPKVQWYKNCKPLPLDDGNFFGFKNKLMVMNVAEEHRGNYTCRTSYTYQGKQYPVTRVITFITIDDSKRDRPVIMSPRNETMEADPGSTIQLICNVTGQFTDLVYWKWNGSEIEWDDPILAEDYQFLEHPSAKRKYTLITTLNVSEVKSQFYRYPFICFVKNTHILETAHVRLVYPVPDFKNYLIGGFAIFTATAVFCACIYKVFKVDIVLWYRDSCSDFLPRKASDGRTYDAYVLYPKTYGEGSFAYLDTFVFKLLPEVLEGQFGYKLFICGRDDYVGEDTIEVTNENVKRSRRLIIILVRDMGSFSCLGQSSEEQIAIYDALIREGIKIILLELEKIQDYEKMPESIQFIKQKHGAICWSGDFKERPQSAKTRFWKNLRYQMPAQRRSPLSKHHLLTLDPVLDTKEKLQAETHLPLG
T1 sequence (Q63621 21-570 partner): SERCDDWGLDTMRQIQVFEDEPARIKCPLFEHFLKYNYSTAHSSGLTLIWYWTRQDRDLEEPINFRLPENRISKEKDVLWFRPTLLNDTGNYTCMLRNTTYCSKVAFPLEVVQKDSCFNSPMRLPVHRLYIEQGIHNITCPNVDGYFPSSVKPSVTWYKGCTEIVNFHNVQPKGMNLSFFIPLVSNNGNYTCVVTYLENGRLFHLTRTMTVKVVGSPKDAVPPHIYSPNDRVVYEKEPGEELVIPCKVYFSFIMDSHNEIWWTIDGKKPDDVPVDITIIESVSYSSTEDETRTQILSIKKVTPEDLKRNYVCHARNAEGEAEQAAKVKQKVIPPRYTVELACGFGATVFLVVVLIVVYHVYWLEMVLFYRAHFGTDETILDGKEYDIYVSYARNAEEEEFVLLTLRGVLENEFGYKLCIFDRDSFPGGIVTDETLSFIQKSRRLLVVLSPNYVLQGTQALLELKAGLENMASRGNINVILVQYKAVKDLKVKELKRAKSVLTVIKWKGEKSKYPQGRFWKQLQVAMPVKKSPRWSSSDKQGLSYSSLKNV
Assay: Cross-linking and radioligand binding of I125-API-101.10 on thymocytes
Excerpt: Thymocytes freshly isolated from rat thymus were resuspended at a concentration of 10^7 cell/ml in PBS (phosphate buffered saline) buffer pH 8.0 (reaction buffer) and washed three times with ice-cold reaction buffer. The reaction mixture for each sample contained: 10^6 cells and 10^7 cpm of 125API-101.10. One sample also contained […] of cold API-101.10 peptide. In the negative control HEK-293 cells containing a negligible amount of IL-1R were used. Each sample volume was then raised to 250 μl with reaction buffer. Samples were incubated at room temperature and/or 37° for 45 minutes to allow peptide binding. The non-permeable cross-linker BS3 (Bis(sulfosuccinimidyl)suberate) was then added to a final concentration of 2.5 mM and samples were incubated at 4° C. for 30 minutes to minimize active internalization of BS3 (11.4 Å) (Pierce) (Partis, J. Prot. Chem. 293:263-277, 1983; Cox et al., J. Immunol. 145:1719-1726, 1990; and Knoller et al., J. Biol. Chem. 266:2795-2804, 1991). The reaction was quenched with 20 mM TRIS pH 7.5 for 15 minutes at room temperature. Cells were centrifuged at 4000 rpm for 10 minutes, lysed for 30 minutes on ice with 150 μl of RIPA buffer (50 mM Tris HCl pH7.4; 150 mM NaCl; 1 mM EDTA; 2 mM Na3VO4; 1 mM NaF; 1% NP-40; 0.25% Nadeoxycholate). […] Radioactivity was determined is every cell lysate with a Packard CobraII autogamma counter.

## CC(C)C[C@@H](NC(=O)[C@@H](CCC(=O)O)NC(=O)[C@H](NC(=O)[C@H](NC(=O)[C@@H](Cc1ccc(O)cc1)NC(=O)[C@H](N)CCCNC(=N)N)[C@H](C)O)C(C)C)C(=O)N[C@H](C)C(N)=O [API-101.10, RYTVELA] (H-[dR][dY][dT][dV][dE][dL][dA]-NH2; N-terminus and C-terminus assumed)
I125-IL-1α 100 pM, 101.10 500 nM
  displacement of radioactive IL-1α: unable to displace
cross-linking, autoradiogram
  displacement of 125I-API-101.10 by non-radioactive peptide: displace almost all
